Literature values as cited in patent publication US20100004191A1, “Compositions of S-adenosyl-L-methionine” (priority 2008, published 2010).

What was measured:
[1] = test system: alcoholic liver cirrhosis; details: oral; patients with alcoholic liver cirrhosis; compared with placebo treated group
[2] = test system: beta-adrenergic; details: L-form vs D-enantiomer

Row | SMILES | overall mortality and/or progression to liver transplant [1] | potency relative to the D-enantiomer [2]
1 | C[S+](CC[C@H](N)C(=O)[O-])C[C@H]1O[C@@H](n2cnc3c(N)ncnc32)[C@H](O)[C@@H]1O (stereo partly drawn) [S-adenosyl-L-methionine] | 29% | 
2 | CC(C)NCC(O)COc1cccc2ccccc12 (centres unmarked) [propranolol] |  | 100 times
